# Measured values reported in ChEMBL document CHEMBL2057069, “Benzoxazole and benzothiazole amides as novel pharmacokinetic enhancers of HIV protease inhibitors” (Bioorg Med Chem Lett, 2012).
# Key:
# [1] = tested on: Human immunodeficiency virus 1; assay: Antiviral activity against wild type HIV1 3B infected in human MT4 LTR-EGFP cells by EGFP reporter gene assay; format: functional, organism-based; settings: Human immunodeficiency virus 1, 3B
# [2] = target: Cytochrome P450 3A4 (Homo sapiens, UniProt P08684); assay: Inhibition of CYP3A4 in human liver microsomes using midazolam as substrate after 10 mins by LC/MS/MS analysis
# Cytochrome P450 3A4, sequence (P08684 whole entry): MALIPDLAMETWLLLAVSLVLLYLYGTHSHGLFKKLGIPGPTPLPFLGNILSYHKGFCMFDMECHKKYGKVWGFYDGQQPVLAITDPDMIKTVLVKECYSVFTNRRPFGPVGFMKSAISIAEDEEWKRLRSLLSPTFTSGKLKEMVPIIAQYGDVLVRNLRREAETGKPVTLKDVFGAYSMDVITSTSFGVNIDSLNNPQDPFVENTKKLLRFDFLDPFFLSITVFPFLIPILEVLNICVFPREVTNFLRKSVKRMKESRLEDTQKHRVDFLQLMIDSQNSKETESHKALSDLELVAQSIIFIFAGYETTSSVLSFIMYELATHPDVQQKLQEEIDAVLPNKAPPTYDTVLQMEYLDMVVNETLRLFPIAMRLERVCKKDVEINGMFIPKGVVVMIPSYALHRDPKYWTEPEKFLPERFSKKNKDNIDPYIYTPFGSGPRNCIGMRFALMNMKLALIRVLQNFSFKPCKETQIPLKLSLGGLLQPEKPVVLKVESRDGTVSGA
EC50 [1] [µM],IC50 [2] [µM],SMILES
30,0.027,CC(C)(C)CN(C[C@@H](O)[C@H](Cc1ccccc1)NC(=O)OCc1cncs1)C(=O)c1ccc2nc(N3CCCC3)oc2c1
45,,CCN(C)c1nc2ccc(C(=O)N(CC(C)C)C[C@H](O)[C@H](Cc3ccccc3)NC(=O)OCc3cncs3)cc2o1
16,,CCN(C)c1nc2ccc(C(=O)N(CC(C)C)C[C@@H](O)[C@H](Cc3ccccc3)NC(=O)OCc3ccc4c(c3)OCO4)cc2o1
> 100,0.14,CCN(C)c1nc2ccc(C(=O)N(CCN3CCCC3)C[C@@H](O)[C@H](Cc3ccccc3)NC(=O)OCc3cncs3)cc2o1
28,0.026,O=C(N[C@@H](Cc1ccccc1)[C@H](O)CN(CC1CCCCC1)C(=O)c1ccc2nc(N3CCCC3)oc2c1)OCc1cncs1
> 100,0.23,CN(C)CCN(C[C@@H](O)[C@H](Cc1ccccc1)NC(=O)OCc1cncs1)C(=O)c1ccc2nc(N3CCCC3)oc2c1
85,0.028,CCNc1nc2ccc(C(=O)N(CC(C)C)C[C@@H](O)[C@H](Cc3ccccc3)NC(=O)OCc3cncs3)cc2o1
> 100,0.038,CC(C)CN(C[C@@H](O)[C@H](Cc1ccccc1)NC(=O)OCc1cncs1)C(=O)c1ccc2nc(N3CCOCC3)oc2c1
> 100,0.079,CCN(C[C@@H](O)[C@H](Cc1ccccc1)NC(=O)OCc1cncs1)C(=O)c1ccc2nc(N(C)CC)oc2c1
> 100,0.14,CCN(C)c1nc2ccc(C(=O)N(CCN3CCOCC3)C[C@@H](O)[C@H](Cc3ccccc3)NC(=O)OCc3cncs3)cc2o1
> 100,0.055,CC(C)CN(C[C@@H](O)[C@H](Cc1ccccc1)NC(=O)OCc1cncs1)C(=O)c1ccc2ncoc2c1
30,0.03,O=C(N[C@@H](Cc1ccccc1)[C@H](O)CN(CC1CCC(F)(F)CC1)C(=O)c1ccc2nc(N3CCCC3)oc2c1)OCc1cncs1
47,0.023,CCN(C)c1nc2ccc(C(=O)N(CC(C)C)C[C@@H](O)[C@H](Cc3ccc(F)cc3)NC(=O)OCc3cncs3)cc2o1

# Second part, the molecule before the results:
SMILES,EC50 [1] [µM],IC50 [2] [µM]
CCN(C)c1nc2ccc(C(=O)N(CC3CCCCC3)C[C@@H](O)[C@H](Cc3ccccc3)NC(=O)OCc3cncs3)cc2o1,21,0.026
CC(C)CN(C[C@@H](O)[C@H](Cc1ccccc1)NC(=O)OCc1cncs1)C(=O)c1ccc2nc(-c3ccncc3)oc2c1,> 100,0.024
CC(C)CN(C[C@@H](O)[C@H](Cc1ccccc1)NC(=O)OCc1cncs1)C(=O)c1ccc2nc(C(C)C)oc2c1,45,0.037
CN(C[C@@H](O)[C@H](Cc1ccccc1)NC(=O)OCc1cncs1)C(=O)c1ccc2nc(N3CCCC3)oc2c1,> 100,0.084
CCN(C)c1nc2ccc(C(=O)N(CCN(C)C)C[C@@H](O)[C@H](Cc3ccccc3)NC(=O)OCc3cncs3)cc2o1,> 100,
CC(C)CN(C[C@@H](O)[C@H](Cc1ccccc1)NC(=O)OCc1cncs1)C(=O)c1ccc2nc(NCCN(C)C)oc2c1,> 100,0.2
"CCN(C)c1nc2ccc(C(=O)N(CC(C)C)CC(O)[C@H](Cc3cccnc3)NC(=O)OCc3cncs3)cc2o1 (single isomer, unassigned)",> 100,0.069
CC(C)CN(C[C@@H](O)[C@H](Cc1ccccc1)NC(=O)OCc1cncs1)C(=O)c1ccc2nc(N3CCCCC3)oc2c1,36,
CC(C)CN(C[C@@H](O)[C@H](Cc1ccccc1)NC(=O)OCc1cncs1)C(=O)c1ccc2nc(N(C)CCN(C)C)oc2c1,63,
CC(C)CN(C[C@@H](O)[C@H](Cc1ccccc1)NC(=O)OCc1cncs1)C(=O)c1ccc2nc(N3CCCC3)oc2c1,> 100,0.033
CC(C)CN(C[C@@H](O)[C@H](Cc1ccccc1)NC(=O)OCc1cncs1)C(=O)c1ccc2nc(NCCCn3ccnc3)oc2c1,87,
CC(C)(O)CN(C[C@@H](O)[C@H](Cc1ccccc1)NC(=O)OCc1cncs1)C(=O)c1ccc2nc(N3CCCC3)oc2c1,> 100,
C#CCN(C)c1nc2ccc(C(=O)N(CC(C)C)C[C@@H](O)[C@H](Cc3ccccc3)NC(=O)OCc3cncs3)cc2o1,48,0.03
O=C(N[C@@H](Cc1ccccc1)[C@H](O)CN(CCN1CCOCC1)C(=O)c1ccc2nc(N3CCCC3)oc2c1)OCc1cncs1,> 100,0.12
C#CCN(C[C@@H](O)[C@H](Cc1ccccc1)NC(=O)OCc1cncs1)C(=O)c1ccc2nc(N(C)CC)oc2c1,60,
CC(C)CN(C[C@@H](O)[C@H](Cc1cccnc1)NC(=O)OCc1cncs1)C(=O)c1ccc2ncsc2c1,> 100,0.09

SMILES,EC50 [1] [µM],IC50 [2] [µM]
CCc1nc2ccc(C(=O)N(CC(C)C)C[C@@H](O)[C@H](Cc3ccccc3)NC(=O)OCc3cncs3)cc2o1,87,0.039
CC(C)CN(C[C@@H](O)[C@H](Cc1ccccc1)NC(=O)OCc1cncs1)C(=O)c1ccc2nc(NCCCN(C)C)oc2c1,60,0.2
CCN(C)c1nc2ccc(C(=O)N(C[C@@H](O)[C@H](Cc3ccccc3)NC(=O)OCc3cncs3)CC(C)(C)C)cc2o1,48,0.037
CC(C)CN(C[C@@H](O)[C@H](Cc1ccccc1)NC(=O)OCc1cncs1)C(=O)c1ccc2nc(N(C)C)oc2c1,47,
CC(C)CN(C[C@@H](O)[C@H](Cc1ccccc1)NC(=O)OCc1cncs1)C(=O)c1ccc2nc(N)oc2c1,> 100,0.042
CC(C)CN(C[C@@H](O)[C@H](Cc1ccccc1)NC(=O)OCc1cncs1)C(=O)c1ccc2nc(NC3CCN(C)CC3)oc2c1,> 100,2.7
CCN(C)c1nc2ccc(C(=O)N(CC(C)C)C[C@@H](O)[C@H](Cc3ccccc3)NC(=O)OCc3ccncc3)cc2o1,49,0.2
CC(C)CN(C[C@H](O)[C@H](Cc1ccccc1)NC(=O)OCc1cncs1)C(=O)c1ccc2nc(N3CCCC3)oc2c1,45,
CC(C)CN(C[C@@H](O)[C@H](Cc1ccccc1)NC(=O)OCc1cncs1)C(=O)c1ccc2nc(N3CCN(C)CC3)oc2c1,> 100,0.092
Cc1nc2ccc(C(=O)N(CC(C)C)C[C@@H](O)[C@H](Cc3ccccc3)NC(=O)OCc3cncs3)cc2o1,> 100,0.052
CC(C)c1nc(CN(C)C(=O)N[C@H](C(=O)N[C@@H](Cc2ccccc2)C[C@H](O)[C@H](Cc2ccccc2)NC(=O)OCc2cncs2)C(C)C)cs1 [RITONAVIR],0.0015,
CCN(C)c1nc2ccc(C(=O)N(CC(C)C)C[C@@H](O)[C@H](Cc3ccccc3)NC(=O)OCc3cccnc3)cc2o1,48,0.022
CCN(C[C@@H](O)[C@H](Cc1ccccc1)NC(=O)OCc1cncs1)C(=O)c1ccc2nc(N3CCCC3)oc2c1,69,0.06
CCNc1nc2ccc(C(=O)N(C[C@@H](O)[C@H](Cc3ccccc3)NC(=O)OCc3cncs3)CC(C)(C)O)cc2o1,> 100,
O=C(N[C@@H](Cc1ccccc1)[C@H](O)CN(CCN1CCCC1)C(=O)c1ccc2nc(N3CCCC3)oc2c1)OCc1cncs1,58,0.13
